Measured values: ChEMBL document CHEMBL1201862, “PubChem BioAssay data set” (2004)
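Protocol summary: plate cells (96-well), add compound at 5 concentrations, incubate 48 h, interpolate endpoints linearly. Abbreviation: GI50, concentration required for 50% inhibition of growth.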 Calls of active or inactive are those of the source. Cut-off read from the data, not from the text of the source: active = GI50 up to about 1.1 µM and inactive = higher.

Tests used:
Experiment in all cases: growth of human tumour cells (NCI), 48 h
786-0 = system: 786-0
A498 = system: A498
A549 = system: A549
ACHN = system: ACHN
BT-549 = system: BT-549
CAKI-1 = system: CAKI-1
CCRF-CEM = system: CCRF-CEM
COLO 205 = system: COLO 205
DU-145 = system: DU-145
EKVX = system: EKVX
HCC 2998 = system: HCC 2998
HCT-116 = system: HCT-116
HCT-15 = system: HCT-15
HL-60 = system: HL-60
HOP-62 = system: HOP-62
HOP-92 = system: HOP-92
HT-29 = system: HT-29
Hs-578T = system: Hs-578T
IGROV-1 = system: IGROV-1
K562 = system: K562
KM12 = system: KM12
LOX IMVI = system: LOX IMVI
M14 = system: M14
MCF7 = system: MCF7
MDA-MB-231 = system: MDA-MB-231
MDA-MB-435 = system: MDA-MB-435
MDA-N = system: MDA-N
MOLT-4 = system: MOLT-4
Malme-3M = system: Malme-3M
NCI-H23 = system: NCI-H23
NCI-H460 = system: NCI-H460
NCI-H522 = system: NCI-H522
NCI/ADR-RES = system: NCI/ADR-RES
OVCAR-3 = system: OVCAR-3
OVCAR-4 = system: OVCAR-4
OVCAR-5 = system: OVCAR-5
OVCAR-8 = system: OVCAR-8
PC-3 = system: PC-3
RPMI-8226 = system: RPMI-8226
RXF 393 = system: RXF 393
SF-268 = system: SF-268
SF-295 = system: SF-295
SF-539 = system: SF-539
SK-MEL-28 = system: SK-MEL-28
SK-MEL-2 = system: SK-MEL-2
SK-MEL-5 = system: SK-MEL-5
SK-OV-3 = system: SK-OV-3
SN12C = system: SN12C
SNB-19 = system: SNB-19
SNB-75 = system: SNB-75
SR = system: SR
SW-620 = system: SW-620
T47D = system: T47D
TK-10 = system: TK-10
U-251 = system: U-251
UACC-62 = system: UACC-62
UO-31 = system: UO-31

## O=C1C(Nc2ccccc2)=CC2=NCCc3n[nH]c1c32
786-0
  GI50: 38.5 µM (inactive)
A498
  GI50: 61.4 µM (inactive)
A549
  GI50: 84.9 µM (inactive)
ACHN
  GI50: 55.6 µM (inactive)
BT-549
  GI50: 40.8 µM (inactive)
CAKI-1
  GI50: 72.6 µM (inactive)
CCRF-CEM
  GI50: 22.3 µM (inactive)
COLO 205
  GI50: 33.1 µM (inactive)
DU-145
  GI50: 64 µM (inactive)
EKVX
  GI50: 41.1 µM (inactive)
HCC 2998
  GI50: 34.8 µM (inactive)
HCT-116
  GI50: 18 µM (inactive)
HCT-15
  GI50: 19.8 µM
HL-60
  GI50: 21.1 µM (inactive)
HOP-62
  GI50: 91.2 µM (inactive)
HOP-92
  GI50: 45.8 µM (inactive)
HT-29
  GI50: 37 µM (inactive)
Hs-578T
  GI50: 42.2 µM (inactive)
IGROV-1
  GI50: 37.8 µM (inactive)
K562
  GI50: 38.5 µM (inactive)
KM12
  GI50: 20.4 µM (inactive)
LOX IMVI
  GI50: 13.9 µM (inactive)
M14
  GI50: 46.8 µM (inactive)
MCF7
  GI50: 26.7 µM (inactive)
MDA-MB-231
  GI50: 34.8 µM (inactive)
MDA-MB-435
  GI50: 17.2 µM (inactive)
MDA-N
  GI50: 16.3 µM (inactive)
MOLT-4
  GI50: 30.1 µM (inactive)
Malme-3M
  GI50: 14.4 µM (inactive)
NCI-H23
  GI50: 33.9 µM (inactive)
NCI-H460
  GI50: 35.9 µM (inactive)
NCI-H522
  GI50: 32.5 µM (inactive)
NCI/ADR-RES
  GI50: 28.6 µM (inactive)
OVCAR-3
  GI50: 25 µM (inactive)
OVCAR-4
  GI50: 27.2 µM (inactive)
OVCAR-5
  GI50: > 100 µM (inactive)
OVCAR-8
  GI50: 21 µM (inactive)
PC-3
  GI50: 33.1 µM (inactive)
RPMI-8226
  GI50: 26.4 µM (inactive)
RXF 393
  GI50: > 100 µM (inactive)
SF-268
  GI50: 65.2 µM (inactive)
SF-295
  GI50: 38.6 µM (inactive)
SF-539
  GI50: 35.7 µM (inactive)
SK-MEL-28
  GI50: 68.1 µM (inactive)
SK-MEL-2
  GI50: 61.7 µM (inactive)
SK-MEL-5
  GI50: 18.5 µM (inactive)
SK-OV-3
  GI50: > 100 µM (inactive)
SN12C
  GI50: 34.8 µM (inactive)
SNB-19
  GI50: 63.8 µM (inactive)
SNB-75
  GI50: > 100 µM (inactive)
SR
  GI50: 25.2 µM (inactive)
SW-620
  GI50: 34.4 µM (inactive)
T47D
  GI50: 34.4 µM (inactive)
TK-10
  GI50: > 100 µM (inactive)
U-251
  GI50: 37.4 µM (inactive)
UACC-62
  GI50: 21.5 µM (inactive)
UO-31
  GI50: 55.8 µM (inactive)
